Measured values: patent US20240189307A1, “METHODS OF STABILIZING THE NEURONAL PROTEOME AGAINST COLLAPSE AND PROTECTING VASCULAR CELLS” (ALBERT EINSTEIN COLLEGE OF MEDICINE, priority 2021, published 2024)

Experiments:
[1] = test system: Tg mice (APPSwe; PS2N141I; TauP301L); assay: Triple transgenic (Tg, TauPS2APP) mouse model of Alzheimer's disease-related proteotoxicity, oral daily CA; type: in vivo
From the text: FIG. 12. Chemical activation of CMA improves behavior and neuropathology in a mouse model of Alzheimer's disease-related proteotoxicity. (A) Schematic of regimen of CMA activator (CA) administration to TauPS2APP (Tg) mice. (B-D) Performance of Tg mice administered vehicle (Veh) or CMA activator (CA) in the novel object recognition test (B, left plot: % of time dedicated to the novel object; right plot: discrimination index), the elevated plus maze (C) and the forced swim test (D). (E) Clasping score in Tg mice +/− CA: time course of clasping score increase (left) and mean linear regression coefficient (right). (F) Performance of Tg mice +/− CA in horizontal grid test. (G-O) Immunostaining of immature amyloid plaques (MOAB2), mature amyloid depositions (6E10), β-sheet marker (Thioflavin S) and Threonine231-phosphorylated tau (pThr231 tau) in the dorsal hippocampus of Tg mice +/− CA. Montages of individual images from the scanning of whole brain slices are shown. Inset: Higher magnification of pThr231 tau staining. Scale bar: 200 μm. Quantification of images of montages of individual images from the scanning of whole brain slices of percentage of area positive and plaque size for MOAB2 (G, J), 6E10 (H, K) or Thioflavin S (I, L). Relationship between number of plaques and average plaque size for different markers of plaque maturity (ThS>6E10>MOAB2) […]. Quantification of percentage of area positive for pThr231 tau (N) and of the overlap between pThr231 tau staining and 6E10 staining (O). All quantifications (except clasping—E) were done at 12 months, in 4-6 mice per group. Data are mean±s.e.m. Comparisons were made using unpaired t-test (B-D, F, G-O), Two-way ANOVA test followed by Sidak's post-hoc analysis (E). *p<0.05, **p<0.005, ***p<0.0005.
FIG. 13. Effect of chemical activation of CMA in a mouse model of Alzheimer's disease-related proteotoxicity. (A-D) Quantification of size of plaques positive for MOAB2 (t7=3.181, p=0.0155) (A), 6E10 (B) or Thioflavin S (ThS) (C) and of T231-phosphorylated tau pathology (t8=2.382, p=0.0444) (D) in brain cortex from Tg mice administered Veh or CA for 4 months. (E) Summary heatmap highlighting the extent of pathology reduction upon CMA activation in cortex and dorsal hippocampus. * highlights significant difference between Veh and CA administered Tg mice. (F) Immunoblot for S202/T205-phosphorylated (AT8) tau in the brain of Tg mice treated with Veh or CA. Representative immunoblot (left) and densitometric quantification (t8=2.425, p=0.0415) (right). Values were normalized to ponceau and are expressed as folds of Veh treated mice. (G) Number of GFAP-positive astrocytes per area unit (t8=4.058, p=0.0036). (H-I) Representative images of immunostaining of inflammation (microglial marker: Iba1—Green), amyloid pathology (MOAB2—Magenta) and nuclear staining with DAPI (blue) in the dorsal hippocampus of Tg mice administered Veh or CA. Montages of individual images of the dorsal hippocampus from the scanning of whole brain slices are shown. Quantification of number of Iba1-positive microglial cells per area unit (t8=2.041, p=0.0755) (left) and mean cell size (t8=2.079, p=0.0713) (right) (H) and colocalization coefficient between microglia (Iba1) and amyloid plaques (MOAB2) (I) (Mann Whitney U=6, p=0.2571). Mean±s.e.m. and individual values are shown. Comparisons were made using unpaired t-test analysis. *: p<0.05, **: p<0.005.
Male wild-type mice (C57BL/6J) or transgenic for CaMKIIα-Cre (B6.Cg-Tg(Camk2α-cre)T29-1Stl/J, Jackson Laboratory), LAMP-2A^flox/flox (Schneider et al., 2014), Tau^P301L (line pR5), Tg (APP^Swe; PS2^N141I; Tau^P301L), PS19 (Tau^P301S) (Yoshiyama et al., 2007) and Atg7^f/f were used in the study. Conditional LAMP-2A deletion was generated by breeding LAMP-2A^flox/flox with the transgenic Cre mice of interest. […]

[2] = Pharmacokinetic analysis in mice brain after p.o. and i.v. administration; type: in vivo; details: p.o. 10 mg/Kg and i.v. 1 mg/kg
[3] = dorsal hippocampus, 30 mg/kg oral daily, 4 months
[4] = hippocampus and cortex, 30 mg/kg oral daily, 4 months

CC(=O)Nc1ccc(-c2cnc3cc(Cl)ccc3n2)cc1 [CA77.1]
visual memory (novel object recognition test) ([1]; 30 mg/kg oral daily for 4 months from 8 months of age): better visual memory
anxiety- and depression-like behaviors (elevated plus maze, forced swim test) ([1]; 30 mg/kg oral daily, 4 months): decreased anxiety- and depression-like behaviors
clasping progression ([1]; 30 mg/kg oral daily, 4 months): slower clasping progression
number of amyloid deposits ([1]; 30 mg/kg oral daily, 4 months): lower number of deposits depending on the deposit maturity
performance in horizontal grid test ([1]; 30 mg/kg oral daily, 4 months): increased performance in horizontal grid test
S202/T205-phosphorylated (AT8) tau by immunoblot ([1]; brain, 30 mg/kg oral daily, 4 months): significant reduction of the mature phosphosite AT8
association of glial cells with amyloid plaque-like deposit [1, 3]: less association of glial cells with amyloid plaque-like deposit
number of microglia and astrocytes [1, 3]: lower number of microglia and astrocytes in the dorsal hippocampus
T231 phosphorylated Tau levels [1, 4]: reduced levels of the early T231 phosphorylated Tau
area and size of amyloid plaques (MOAB2, 6E10, thioflavin S) [1, 4]: reduced area and size of immature (MOAB2-positive) and mature (6E10 and thioflavin S-positive) amyloid plaques
brain penetrance and pharmacokinetics [2]: brain penetrance with favorable pharmacokinetics
